# Results from US20240199587A1, “HETEROCYCLIC COMPOUNDS” (Hoffmann-La Roche Inc., priority 2021, published 2024).
# Target: T1, MAGL (Homo sapiens, UniProt Q99685)
# T1 sequence (Q99685 1-303): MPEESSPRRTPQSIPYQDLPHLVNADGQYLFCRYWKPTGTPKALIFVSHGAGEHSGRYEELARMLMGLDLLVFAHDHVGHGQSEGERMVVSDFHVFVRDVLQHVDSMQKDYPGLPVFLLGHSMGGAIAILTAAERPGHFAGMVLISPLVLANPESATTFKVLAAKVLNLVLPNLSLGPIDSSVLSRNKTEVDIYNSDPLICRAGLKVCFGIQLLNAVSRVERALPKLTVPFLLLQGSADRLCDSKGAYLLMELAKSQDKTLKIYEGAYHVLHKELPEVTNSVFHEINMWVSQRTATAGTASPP
# Assay: 2-AG assay (MAGL inhibitory activity, hydrolysis of 2-arachidonoylglycerol to arachidonic acid followed by mass spectrometry)
# Format: biochemical
# Settings: 8 μM 2-arachidonoylglycerol, 15 min pre-incubation, 30 min incubation at RT, RapidFire MS readout
# Outline: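 Human MAGL ([…] final) pre-incubated 15 min at RT with compound in 50 mM TRIS, 1 mM EDTA, 0.01% Tween-20, 2.5% DMSO; 8 μM 2-AG then added for 30 min at RT. Acetonitrile quench with d8-arachidonic acid; arachidonic acid measured by RapidFire SPE–MS/MS, activity from arachidonic acid/d8 ratio.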
row,SMILES,IC50
1,"CS(=O)(=O)c1cccc(CC2CC3(C2)CN(C(=O)N2CC4(CC(n5cnc(C6(O)CC6)n5)C4)C2)C3)c1 [Example 490, [6-[3-(1-hydroxycyclopropyl)-1,2,4-triazol-1-yl]-2-azaspiro[3.3]heptan-2-yl]-[6-[(3-methylsulfonylphenyl)methyl]-2-azaspiro[3.3]heptan-2-yl]methanone]",6.69 nM
2,"Cc1ccc(OC2CN(C(=O)N3CC4(CC(n5cnc(C6CC6)n5)C4)C3)C2)c(Cl)n1 [Example 100, (3-((2-chloro-6-methylpyridin-3-yl)oxy)azetidin-1-yl)(6-(3-cyclopropyl-1H-1,2,4-triazol-1-yl)-2-azaspiro[3.3]heptan-2-yl)methanone]",79.9 nM
3,"O=C(N1CC(c2ccc(NC3(C(F)(F)F)CC3)nc2)C1)N1CC2(CC(n3cnc(C4CC4)n3)C2)C1 [Example 477, [6-(3-cyclopropyl-1,2,4-triazol-1-yl)-2-azaspiro[3.3]heptan-2-yl]-[3-[6-[[1-(trifluoromethyl)cyclopropyl]amino]-3-pyridyl]azetidin-1-yl]methanone]",0.97 nM
4,"O=C(N1CC(OCc2ccc(F)cc2Cl)C1)N1CC2(CC(n3cnc(C4CC4)n3)C2)C1 [Example 77, (3-((2-chloro-4-fluorobenzyl)oxy)azetidin-1-yl)(6-(3-cyclopropyl-1H-1,2,4-triazol-1-yl)-2-azaspiro[3.3]heptan-2-yl)methanone]",9.2 nM
5,"O=C(N1CC(c2ccc(N3CC(C(F)(F)F)C3)nc2)C1)N1CC2(CC(c3ccc(C(F)(F)F)nc3)C2)C1 [Example 523, [3-[6-[3-(trifluoromethyl)azetidin-1-yl]-3-pyridyl]azetidin-1-yl]-[6-[6-(trifluoromethyl)-3-pyridyl]-2-azaspiro[3.3]heptan-2-yl]methanone]",393 nM
6,O=C(N1CC(c2ccc(NCC3(C(F)(F)F)CC3)nc2)C1)N1CC2(CC(c3ccc(C(F)(F)F)nc3)C2)C1 [Example 527],50.9 nM
7,"O=C(C1CC(COCC2(C(F)(F)F)CC2)C1)N1CC2(CC(n3cnc(C4CC4)n3)C2)C1 (centres unmarked) [Example 173, [6-(3-cyclopropyl-1,2,4-triazol-1-yl)-2-azaspiro[3.3]heptan-2-yl]−[3-[[1-(trifluoromethyl)cyclopropyl]methoxymethyl]cyclobutyl]methanone]",546 nM
8,"O=C(N1CC(Oc2nccc(C3CC3)c2F)C1)N1CC2(CC(n3cnc(C4CC4)n3)C2)C1 [Example 204, [3-[(4-cyclopropyl-3-fluoro-2-pyridyl)oxy]azetidin-1-yl]-[6-(3-cyclopropyl-1,2,4-triazol-1-yl)-2-azaspiro[3.3]heptan-2-yl]methanone]",0.8 nM
9,"O=C(N1C[C@H]2C[C@H](Oc3ccc(C(F)(F)F)c(Cl)c3)C[C@H]2C1)N1CC2(CC(n3cnc(C4CC4)n3)C2)C1 [Example 115, [6-(3-cyclopropyl-1,2,4-triazol-1-yl)-2-azaspiro[3.3]heptan-2-yl]-[rac-(3aS,6aR)-5-[3-chloro-4-(trifluoromethyl)phenoxy]-3,3a,4,5,6,6a-hexahydro-1H-cyclopenta[c]pyrrol-2-yl]methanone]",2.4 nM
10,"COC(=O)c1ccccc1S(=O)(=O)N1CC2(CN(C(=O)N3CC4(CC(n5cnc(C6CC6)n5)C4)C3)C2)C1 [Example 264, methyl 2-[[6-[6-(3-cyclopropyl-1,2,4-triazol-1-yl)-2-azaspiro[3.3]heptane-2-carbonyl]-2,6-diazaspiro[3.3]heptan-2-yl]sulfonyl]benzoate]",27.2 nM
11,"COc1cc(C(F)(F)F)ccc1O[C@H]1C[C@@H]2CN(C(=O)N3CC4(CC(n5cnc(C6CC6)n5)C4)C3)C[C@@H]2C1 [Example 116, [6-(3-cyclopropyl-1,2,4-triazol-1-yl)-2-azaspiro[3.3]heptan-2-yl]-[rac-(3aS,6aR)-5-[2-methoxy-4-(trifluoromethyl)phenoxy]-3,3a,4,5,6,6a-hexahydro-1H-cyclopenta[c]pyrrol-2-yl]methanone]",2.7 nM
12,"NC(=O)[C@H]1CC(F)(F)CCN1c1ccc(C2CN(C(=O)N3CC4(CC(n5cnc(C6CC6)n5)C4)C3)C2)cc1 (single isomer, unassigned) [Example 494]",2.34 nM
13,"O=C(N1CC(c2ccc(C3CCC3)cc2)C1)N1CC2(CC(n3cnc(C4CC4)n3)C2)C1 [Example 507, [3-(4-cyclobutylphenyl)azetidin-1-yl]-[6-(3-cyclopropyl-1,2,4-triazol-1-yl)-2-azaspiro[3.3]heptan-2-yl]methanone]",0.51 nM
14,"O=C(N1CC2(CC(Oc3ccc(C(F)(F)F)nn3)C2)C1)N1CC2(CC(n3cnc(C4CC4)n3)C2)C1 [Example 62, [6-(3-cyclopropyl-1,2,4-triazol-1-yl)-2-azaspiro[3.3]heptan-2-yl]-[6-[6-(trifluoromethyl)pyridazin-3-yl]oxy-2-azaspiro[3.3]heptan-2-yl]methanone]",7.2 nM
15,"CC(C)(C)c1nc(C23CC(C(=O)N4CC5(CC(n6cnc(C7CC7)n6)C5)C4)(C2)C3)no1 [Example 163, [3-(5-tert-butyl-1,2,4-oxadiazol-3-yl)-1-bicyclo[1.1.1]pentanyl]-[6-(3-cyclopropyl-1,2,4-triazol-1-yl)-2-azaspiro[3.3]heptan-2-yl]methanone]",192 nM
16,"Cn1ccc(OC2CC3(C2)CN(C(=O)N2CC4(CC(n5cnc(C6CC6)n5)C4)C2)C3)cc1=O [Example 66, 4-[[2-[6-(3-cyclopropyl-1,2,4-triazol-1-yl)-2-azaspiro[3.3]heptane-2-carbonyl]-2-azaspiro[3.3]heptan-6-yl]oxy]-1-methyl-pyridin-2-one]",159 nM
17,"O=C(N1CC2(CC(Oc3ccc(F)cc3F)C2)C1)N1CC2(CC(n3cnc(C4CC4)n3)C2)C1 [Example 59, (6-(3-cyclopropyl-1H-1,2,4-triazol-1-yl)-2-azaspiro[3.3]heptan-2-yl)(6-(2,4-difluorophenoxy)-2-azaspiro[3.3]heptan-2-yl)methanone]",2.6 nM
